According to PMC13210772, “Dual FLT3/MAPK14 Proteolysis-Targeting Chimera (PROTAC) Induces Potent Acute Myeloid Leukemia Cell Death” (Pharmaceuticals, 2026):

Assays:
MAPK14 = MAPK14 (Homo sapiens, UniProt Q16539); assay: KINOMEscan binding assay; design: purchased Eurofins DiscoverX Corporation; host or cells: E. coli BL21-derived (T7 phage) or HEK-293
Description: (§1) Kinase-tagged T7 phage strains were prepared in an E. coli host derived from the BL21 strain. E. coli were grown to log-phase and infected with T7 phage and incubated with shaking at 32 °C until lysis. The lysates were centrifuged and filtered to remove cell debris. The remaining kinases were produced in HEK-293 cells and subsequently tagged with DNA for qPCR detection. […] The liganded beads were blocked with excess biotin and washed with blocking buffer (SeaBlock (Pierce), 1% BSA, 0.05% Tween 20, 1 mM DTT) to remove unbound ligand and to reduce non-specific binding. […] The compounds were then diluted directly into the assays such that the final concentration of DMSO was 0.9%. All reactions performed in polypropylene 384-well plate. Each was a final volume of 0.02 mL. […] The kinase concentration in the eluates was measured by qPCR.

FLT3-ITD [1] = assay: KINOMEscan binding assay
Description: Binding to FLT3-ITD was determined using the KINOMEscan^TM assay (Eurofins DiscoverX Corporation, San Diego, CA, USA)
as §1

FLT3-ITD [2] = target: T1, FLT3-ITD (Homo sapiens, UniProt P36888, INS600HVDFREYEYD); assay: FLT3-ITD degradation, immunoblot in MV4-11 cells; details: for inhibition at 0.05 µM: MV4-11, 24 h, read-out: % FLT3-ITD Degradation at 50 nM; for reduction/elimination of FLT3-ITD / FLT3-ITD degradation / FLT3-ITD (130 kDa) level relative to untreated cells: MV4-11 cells; for FLT3-ITD degradation / FLT3-ITD (130 kDa) level relative to untreated cells: 50 nM; for FLT3-ITD degradation: 24 h
T1 sequence (P36888 with tags, fused parts or gaps INS600HVDFREYEYD): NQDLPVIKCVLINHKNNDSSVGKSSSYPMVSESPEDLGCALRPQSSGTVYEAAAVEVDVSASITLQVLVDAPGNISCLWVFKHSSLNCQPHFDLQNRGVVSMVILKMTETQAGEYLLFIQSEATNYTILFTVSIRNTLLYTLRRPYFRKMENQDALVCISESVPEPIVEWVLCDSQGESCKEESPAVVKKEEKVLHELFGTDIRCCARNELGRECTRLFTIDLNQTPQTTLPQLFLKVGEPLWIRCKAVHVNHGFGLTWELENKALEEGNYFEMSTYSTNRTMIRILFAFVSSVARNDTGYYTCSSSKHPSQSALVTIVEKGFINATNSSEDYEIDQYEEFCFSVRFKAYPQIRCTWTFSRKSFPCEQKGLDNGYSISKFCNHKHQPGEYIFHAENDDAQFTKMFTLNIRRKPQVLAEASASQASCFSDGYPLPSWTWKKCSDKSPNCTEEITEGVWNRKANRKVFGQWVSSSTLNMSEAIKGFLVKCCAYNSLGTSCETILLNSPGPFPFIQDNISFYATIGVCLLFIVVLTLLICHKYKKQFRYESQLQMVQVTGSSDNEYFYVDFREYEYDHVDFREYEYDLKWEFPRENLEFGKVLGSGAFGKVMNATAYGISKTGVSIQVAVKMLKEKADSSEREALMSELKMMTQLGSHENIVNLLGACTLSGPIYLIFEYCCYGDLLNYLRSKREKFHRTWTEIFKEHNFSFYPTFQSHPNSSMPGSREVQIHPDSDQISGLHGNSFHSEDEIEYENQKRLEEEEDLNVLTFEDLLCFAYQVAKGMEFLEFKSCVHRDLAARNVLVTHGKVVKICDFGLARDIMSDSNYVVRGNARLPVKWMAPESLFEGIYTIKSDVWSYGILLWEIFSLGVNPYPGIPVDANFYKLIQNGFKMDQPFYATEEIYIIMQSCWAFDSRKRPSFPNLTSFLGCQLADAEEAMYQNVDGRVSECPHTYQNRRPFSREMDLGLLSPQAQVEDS

in vitro [3] = details: human, HEK293 cells
in vitro [4] = details: CD-1, mouse, liver microsomes, pH 7.4
MOLM-13 cells = assay: Apoptosis by flow cytometry (annexin-V/propidium iodine); format: cell-based, human; details: 72 h
Description: To further assess the biological relevance of these findings, we treated MV4-11 cells with the new PROTACs, included MA49 as control, and analyzed them for early (annexin-V positive) and late apoptosis (annexin-V and propidium iodine positive) by flow cytometry. Cells in late apoptosis are more severely damaged than cells in early apoptosis. […] After 72 h, all degraders evoked equal levels of apoptosis (Figure 4c). We additionally tested these degraders in MOLM-13 cells which carry FLT3-ITD and FLT3 from a patient with AML after initial myelodysplastic syndrome.
(§2) Figure 4 Biological and biochemical characterization of the FLT3 PROTACs. (a) MV4-11 cells were incubated for 24 h with 50 nM of the indicated compounds. Immunoblotting was performed for the indicated proteins and their phosphorylation (p-) or cleavage (cl.; indicated by arrows); β-actin was used to ensure equal sample loading. (b) MV4-11 cells were treated with the indicated agents and analyzed for early and late apoptosis by flow cytometry. (c) Same as in (b) but treatment for 72 h. (d) MOLM-13 cells were treated with the indicated agents and analyzed for early and late apoptosis by flow cytometry. […] Immunoblots show the expression of the indicated proteins and their phosphorylation (p-); β-actin was used to ensure equal sample loading. All immunoblots show data from at least two independent repetitions and flow cytometry analyses were conducted thrice independently; * […], ** p < 0.01, *** p < 0.001, **** p < 0.0001.

[5] = Metabolic stability in liver microsomes; details: for degraded after 2 h: mouse liver microsomes; for 10 min - compound remaining % / 20 min - compound remaining % / 30 min - compound remaining % / 60 min - compound remaining % / 120 min - compound remaining %: single runs A and B (Table S3)
FLT3-ITD [6] = assay: FLT3-ITD degradation, immunoblot in MOLM-13 cells; format: cell-based, human; details: 50 nM, 24 h
Source text: To verify that MA190 and MA191 trigger the depletion of FLT3-ITD and a breakdown of its downstream signaling in both MV4-11 and MOLM-13 cells, we used immunoblotting. Furthermore, we evaluated if the elimination of FLT3-ITD is inherent to the PROTAC activities of MA190 and MA191, or due to their kinase inhibitor moieties using MA68. […] The loss of FLT3-ITD was linked to a reduction of STAT5 and AKT, their phosphorylation, and the auto-phosphorylation of FLT3-ITD in both AML cell systems (Figure 4f,g).
as §2

[7] = mouse (CD-1) liver microsomes, 25 μM

Chain of MAPK14 (Q16539 whole entry): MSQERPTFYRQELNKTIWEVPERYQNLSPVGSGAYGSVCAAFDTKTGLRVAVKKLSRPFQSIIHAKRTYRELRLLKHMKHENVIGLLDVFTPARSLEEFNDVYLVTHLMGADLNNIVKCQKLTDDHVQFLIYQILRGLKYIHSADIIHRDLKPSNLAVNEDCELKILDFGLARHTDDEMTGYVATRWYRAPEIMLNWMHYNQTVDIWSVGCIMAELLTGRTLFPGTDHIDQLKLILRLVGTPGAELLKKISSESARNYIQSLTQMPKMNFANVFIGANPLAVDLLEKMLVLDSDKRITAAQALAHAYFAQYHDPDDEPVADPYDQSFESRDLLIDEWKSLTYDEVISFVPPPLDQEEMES

% MAPK- 14 Binding at 1 µM (MAPK14) [%] | % FLT3-ITD Binding at 1 µM (FLT3-ITD [1]) [%] | inhibition at 0.05 µM (FLT3-ITD [2]) [%] | reduction/elimination of FLT3-ITD (FLT3-ITD [2]) [%] | remaining at 0 h, 25 µM (in vitro [4]) [%] | remaining at 10 min, 25 µM (in vitro [4]) [%] | remaining at 20 min, 25 µM (in vitro [4]) [%] | remaining at 0.5 h, 25 µM (in vitro [4]) [%] | remaining at 1 h, 25 µM (in vitro [4]) [%] | remaining at 2 h, 25 µM (in vitro [4]) [%] | 20 min—Compound Remaining % [5, 7] [%] | 30 min—Compound Remaining % [5, 7] [%] | 60 min—Compound Remaining % [5, 7] [%] | degraded after 2 h [5] [%] | FLT3-ITD degradation (FLT3-ITD [2]) | FLT3-ITD (130 kDa) level relative to untreated cells (FLT3-ITD [2]) [%] | 10 min—Compound Remaining % [5, 7] [%] | Compound | viability at 24 h, 50 µM (in vitro [3]) [%] | induction of late apoptosis (MOLM-13 cells) | FLT3-ITD degradation (FLT3-ITD [6]) | further results
81 ± 0 | 91 ± 2 | 80 | 80 | 100 | 66 | 53 | 37 | 29 | 15 | 52.9 ± 2.1 | 37.2 ± 0.6 | 28.8 ± 2.9 | 85.0 |  |  |  | Cc1ncsc1-c1ccc([C@H](C)NC(=O)[C@@H]2C[C@@H](O)CN2C(=O)[C@@H](NC(=O)CCOCCOCCOCCNC(=O)c2cc(Oc3ccc(NC(=O)Nc4cc(C(C)(C)C)on4)cc3)ccn2)C(C)(C)C)cc1 [MA49, reference compound] | 2.9 ± 0.3 | most potent inducers of late apoptosis |  | 10 min - compound remaining % ([5]; listed as MA49_B): 71%; 20 min - compound remaining % ([5]; listed as MA49_B): 57%; 30 min - compound remaining % ([5]; listed as MA49_B): 38%; 60 min - compound remaining % ([5]; listed as MA49_B): 35%; 120 min - compound remaining % ([5]; 120 min, listed as MA49_B): 10%
90 ± 2 | 71 ± 1 | 95 | > 95 | 100 | 92 | 90 | 95 | 96 | 91 | 88.5 ± 1.2 | 93.9 ± 0.6 |  | 8.0 | eliminate FLT3-ITD | 5 | 91.5 ± 0.4 | Cc1ncsc1-c1ccc([C@H](C)NC(=O)[C@@H]2C[C@@H](O)CN2C(=O)[C@@H](NC(=O)[C@H]2CC[C@H](C(=O)N3CCC(CCNC(=O)c4cc(Oc5ccc(NC(=O)Nc6cc(C(C)(C)C)on6)cc5)ccn4)CC3)CC2)C(C)(C)C)cc1 [MA190, 4-(4-(3-(5-(tert-Butyl)isoxazol-3-yl)ureido)phenoxy)-N-(2-(1-(trans-4-(((S)-1-((2S,4R)-4-hydroxy-2-(((S)-1-(4-(4-methylthiazol-5-yl)phenyl)ethyl)carbamoyl)pyrrolidin-1-yl)-3,3-dimethyl-1-oxobutan-2-yl)carbamoyl)cyclohexanecarbonyl)piperidin-4-yl)ethyl)picolinamide] | 99.1 ± 3.1 | most potent inducers of late apoptosis | eliminate FLT3-ITD | 20 min - compound remaining % ([5]; listed as MA190_B): 87%; 30 min - compound remaining % ([5]; listed as MA190_B): 93%; 120 min - compound remaining % ([5]; 120 min, listed as MA190_B): 93%
89 ± 2 | 88 ± 2 | 95 | > 95 | 100 | 99 | 96 | 94 | 93 | 91 | 97.0 ± 1.0 | 95.0 ± 1.2 | 91.2 ± 1.8 | 10.8 | eliminate FLT3-ITD | 5 | 98.2 ± 0.9 | Cc1ncsc1-c1ccc([C@H](C)NC(=O)[C@@H]2C[C@@H](O)CN2C(=O)[C@@H](NC(=O)[C@H]2CC[C@H](C(=O)N3CCN(CCNC(=O)c4cc(Oc5ccc(NC(=O)Nc6cc(C(C)(C)C)on6)cc5)ccn4)CC3)CC2)C(C)(C)C)cc1 [MA191, 4-(4-(3-(5-(tert-Butyl)isoxazol-3-yl)ureido)phenoxy)-N-(2-(4-(trans-4-(((S)-1-((2S,4R)-4-hydroxy-2-(((S)-1-(4-(4-methylthiazol-5-yl)phenyl)ethyl)carbamoyl)pyrrolidin-1-yl)-3,3-dimethyl-1-oxobutan-2-yl)carbamoyl)cyclohexanecarbonyl)piperazin-1-yl)ethyl)picolinamide] | 86.9 ± 5.8 | most potent inducers of late apoptosis | eliminate FLT3-ITD | 120 min—Compound Remaining % ([5]; mouse (CD-1) liver microsomes, 25 μM, 120 min): 89.2 ± 1.0%; 10 min - compound remaining % ([5]; listed as MA191_B): 97%; 20 min - compound remaining % ([5]; listed as MA191_B): 98%; 60 min - compound remaining % ([5]; listed as MA191_B): 89%; 120 min - compound remaining % ([5]; 120 min, listed as MA191_B): 88%

Compound | % MAPK- 14 Binding at 1 µM (MAPK14) [%] | % FLT3-ITD Binding at 1 µM (FLT3-ITD [1]) [%] | inhibition at 0.05 µM (FLT3-ITD [2]) [%] | reduction/elimination of FLT3-ITD (FLT3-ITD [2]) [%] | remaining at 0 h, 25 µM (in vitro [4]) [%] | remaining at 10 min, 25 µM (in vitro [4]) [%] | remaining at 20 min, 25 µM (in vitro [4]) [%] | remaining at 0.5 h, 25 µM (in vitro [4]) [%] | remaining at 1 h, 25 µM (in vitro [4]) [%] | remaining at 2 h, 25 µM (in vitro [4]) [%] | 20 min—Compound Remaining % [5, 7] [%] | 30 min—Compound Remaining % [5, 7] [%] | 60 min—Compound Remaining % [5, 7] [%] | degraded after 2 h [5] [%] | FLT3-ITD degradation (FLT3-ITD [2]) | FLT3-ITD (130 kDa) level relative to untreated cells (FLT3-ITD [2]) [%] | 10 min—Compound Remaining % [5, 7] [%] | viability at 24 h, 50 µM (in vitro [3]) [%] | induction of late apoptosis (MOLM-13 cells) | FLT3-ITD degradation (FLT3-ITD [6]) | further results
CNC(=O)c1cc(Oc2ccc(NC(=O)Nc3cc(C(C)(C)C)on3)cc2)ccn1 [MA68, reference compound] |  |  |  |  |  |  |  |  |  |  |  |  |  |  | but not their underlying kinase inhibitor MA68, eliminate FLT3-ITD |  |  | 11.5 ± 2.2 |  | but not their underlying kinase inhibitor MA68, eliminate FLT3-ITD | 
